According to article PMC6295868, “Hybrid Inhibitors of Malarial Dihydrofolate Reductase with Dual Binding Modes That Can Forestall Resistance” (ACS Medicinal Chemistry Letters, 2018):
Read-outs that look alike come from different tables or passages of the source.

How the values were obtained:
[1] = tested on: P. falciparum CSL-2 (NRNL); experiment: microbe, parasite or virus in culture; format: cell-based; conditions: Plasmodium falciparum, read-out: IC50 P. falciparum CSL-2 (NRNL)
[2] = tested on: P. falciparum V1/S (IRNL); experiment: microbe, parasite or virus in culture; format: cell-based; conditions: Plasmodium falciparum, read-out: IC50 P. falciparum V1/S (IRNL)
[3] = tested on: surrogate cells (BL21(DE3) E. coli) expressing N51I+C59R+S108N+I164L quadruple mutant PfDHFR; experiment: Bacterial surrogate growth, cells expressing quadruple mutant PfDHFR; format: cell-based, Escherichia coli; conditions: 100 µM BT1, M9 minimal medium, trimethoprim
in vitro = conditions: African green monkey
P. falciparum W2 (IRNI) = experiment: microbe, parasite or virus in culture; format: cell-based; conditions: Plasmodium falciparum, W2, read-out: IC50 P. falciparum W2 (IRNI)
[4] = tested on: wild-type and Pyr-resistant mutant P. falciparum; experiment: microbe, parasite or virus in culture; format: cell-based; conditions: Plasmodium falciparum, read-out: IC50 against both wild-type and Pyr-resistant mutant P. falciparum
[5] = tested on: surrogate cells (BL21(DE3) E. coli) expressing wild-type PfDHFR; experiment: Bacterial surrogate growth, cells expressing wild-type PfDHFR; format: cell-based, Escherichia coli; conditions: 100 µM BT1, M9 minimal medium, trimethoprim
[6] = tested on: P. falciparum TM4/8.2 (NCSI); experiment: microbe, parasite or virus in culture; format: cell-based; conditions: Plasmodium falciparum, read-out: IC50 P. falciparum TM4/8.2 (NCSI)
hDHFR = biological target: T1, hDHFR (Homo sapiens, UniProt P00374); conditions: read-out: Ki hDHFR
T1 sequence (P00374 1-187): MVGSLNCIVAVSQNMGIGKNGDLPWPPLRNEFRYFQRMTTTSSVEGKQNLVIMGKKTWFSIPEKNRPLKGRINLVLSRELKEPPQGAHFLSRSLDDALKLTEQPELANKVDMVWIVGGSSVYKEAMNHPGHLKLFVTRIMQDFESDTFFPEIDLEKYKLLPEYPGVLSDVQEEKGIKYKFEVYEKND

[7] = tested on: P. falciparum K1CB1 (NRNI); experiment: microbe, parasite or virus in culture; format: cell-based; conditions: Plasmodium falciparum, read-out: IC50 P. falciparum K1CB1 (NRNI)
Vero cells = tested on: Vero cells; set-up: method as in PMID 11881993; conditions: IC50 against Vero cells; read-out: cytotoxicity Vero cells; cited from earlier work
[8] = tested on: P. falciparum V1/S (IRNL); conditions: ± SD; cited from earlier work

SMILES	IC50 [1] [nM]	IC50 [2] [nM]	growth inhibition of surrogate cells [3]	IC50 (in vitro) [nM]	IC50 (P. falciparum W2 (IRNI)) [nM]	IC50 [4] [nM]	growth inhibition of surrogate cells [5]	IC50 [6] [nM]	Ki (hDHFR) [nM]	IC50 [7] [nM]	IC50 (Vero cells) [nM]	IC50 [8] [nM]
CCc1nc(N)nc(N)c1OCCCOc1cccc(-c2c(N)nc(N)nc2CC)c1 [BT1]	510 ± 80	1720 ± 690	completely inhibitory	5940 ± 650	250 ± 50	< 5000	completely inhibitory	290 ± 50	22.5 ± 2.9	220 ± 60	–	–
CCc1nc(N)nc(N)c1OCCCOc1ccc(-c2c(N)nc(N)nc2CC)cc1 [BT2S]	3950 ± 360	4400 ± 710	–	6300 ± 1500	2350 ± 100	–	–	63 ± 14	20.2 ± 3.3	1840 ± 310	–	–
CCc1nc(N)nc(N)c1OCCCOc1ccc(-c2c(N)nc(N)nc2CC)cc1 [BT2]	–	–	–	–	–	–	–	–	18.1 ± 1.3	–	–	–
CCc1nc(N)nc(N)c1-c1ccc(OCCCOc2ccc(-c3c(N)nc(N)nc3CC)cc2)cc1 [BT3S]	310 ± 20	330 ± 23	–	2530 ± 440	300 ± 30	–	–	35 ± 3.3	33.6 ± 10.6	330 ± 38	–	–
CCc1nc(N)nc(N)c1-c1cccc(Cl)c1 [P30]	–	–	–	–	–	–	–	–	–	–	7000	–
Cc1nc(N)nc(N)c1OCCCOc1cc(Cl)c(Cl)cc1Cl [P65, reference compound]	4400 ± 2100	–	–	4030 ± 410	2270 ± 650	–	–	–	47.6 ± 4	1920 ± 530	–	–
CCc1nc(N)nc(N)c1-c1ccc(Cl)cc1 [Pyr, pyrimethamine, reference compound]	–	–	–	> 100000	–	–	–	–	–	–	–	> 100000
